Source: patent publication US20230130103A1, “TARGETED PHARMACOLOGICAL THERAPEUTICS IN UVEAL MELANOMA” (Washington University, priority 2017, published 2023)
Starred links: 1 amine or outer side, 2 acyl side, 3 side chain; linkers in the order of their positions; H or OH if unused. Positions of bridges follow the written chain, without caps; N, C: chain ends. Non-standard residues stand in square brackets, D forms with d. Residues, ends and D or L forms follow the SMILES beside them. *: point of attachment. Leu(3R-OH,Nα-propionyl) = CCC(=O)N[C@H](C(=O)*)[C@H](O)C(C)C; X1 = CC(C)[C@@H](O[*:3])[C@H](N[*:1])C(=O)[*:2]; X2 = CC(C)[C@H](O[*:3])[C@@H](N[*:1])C(=O)[*:2]; NMeaThr = CN[C@H](C(=O)O)[C@H](C)O; dPhLac = O=C(O)[C@H](O)Cc1ccccc1; NMeA = CN[C@@H](C)C(=O)O; NMeDha = C=C(NC)C(=O)O

Tested on: 92.1 UM cells
Test: Gene Set Enrichment Analysis (GSEA) of RNA-Seq data
Type: cell-based, Human
[1] = gene set #CAFFAREL_RESPONSE_TO_THC_DN
[2] = gene set ALCALAY_AML_BY_NPM1_LOCALIZATION_DN
[3] = gene set BASSO_[?]_LYMPHOCYTE_NETWORK
[4] = gene set CHIANG_LIVER_CANCER_SUBCLASS_UNANNOTATED_DN
[5] = gene set CHICAS_RB1_TARGETS_GROWING
[6] = gene set CHICAS_RB1_TARGETS_SENESCENT
[7] = gene set DOUGLAS_[?]_TARGETS_UP
[8] = gene set ELVIDGE_HIF1A_TARGETS_UP
[9] = gene set FERRANDO_T_ALL_WITH_MLL_ENL_FUSION_DN
[10] = gene set FOURNIER_ACINAR_DEVELOPMENT_LATE_DN
[11] = gene set GARCIA_TARGETS_OF_FL[?]_AND_DAX1_DN
[12] = gene set GROSS_HYPOXIA_VIA_ELK3_UP
[13] = gene set GRUETZMANN_PANCREATIC_CANCER_UP
[14] = gene set IVANOVA_HEMATOPOIESIS_LATE_PROGENITOR
[15] = gene set JOHNSTONE_PARVES_TARGETS_2_DN
[16] = gene set KEGG_AMINO_SUGAR_AND_NUCLEOTIDE_SUGAR_METABOLISM
[17] = gene set KEGG_CITRATE_CYCLE_TCA_CYCLE
[18] = gene set KEGG_FC_GAMMA_[?]_MEIATED_PHAGOCYTOSIS
[19] = gene set KEGG_PATHOGENIC_ESCHERICHIA_COLI_INFECTION
[20] = gene set LASTOWSKA_NEUROBLASTOMA_COPY_NUMBER_DN
[21] = gene set MARIADASON_REGULATED_BY_HISTONE_ACETYLATION_DN
[22] = gene set MARTINEZ_RESPONSE_TO_TRABECTEDIN_DN
[23] = gene set MEINHOLD_OVARIAN_CANCER_LOW_GRADE_DN
[24] = gene set ONDER_CDH1_TARGETS_1_DN
[25] = gene set OXFORD_RALA_OR_RALB_TARGETS_UP
[26] = gene set PEART_HDAC_PROLIFERATION_CLUSTER_DN
[27] = gene set PODAR_RESPONSE_TO_ADAPHOSTIN_DN
[28] = gene set PRAMOONIAGO_SOX4_TARGETS_DN
[29] = gene set PUIFFE_INVASION_INHIBITED_BY_ASCITES_UP
[30] = gene set REACTOME_ACTIVATION_OF_CHAPERONE_GENES_BY_XBP15

SMILES: C=C1C(=O)N[C@@H](C)C(=O)N(C)[C@@H](C)C(=O)N[C@H]([C@@H](OC(=O)[C@@H](NC(=O)CC)[C@H](O)C(C)C)C(C)C)C(=O)N(C)[C@@H]([C@H](C)OC)C(=O)O[C@H](C(C)C)[C@H](NC(C)=O)C(=O)O[C@H](Cc2ccccc2)C(=O)N1C [FR, [(1S)-1-[(3S,6R,9S,12S,18R,21S,22R)-21-acetamido-18-benzyl-3-[(1S)-1-methoxyethyl]-4,9,10,12,16-pentamethyl-15-methylidene-2,5,8,11,14,17,20-heptaoxo-22-propan-2-yl-1,19-dioxa-4,7,10,13,16-pentazacyclodocos-6-yl]-2-methylpropyl] (2S,3R)-3-hydroxy-4-methyl-2-(propanoylamino)pentanoate] (Ac-[X1][dPhLac][NMeDha]A[NMeA][X2](Leu(3R-OH,Nα-propionyl))[NMeaThr](Me); ester 1-C)
- ES [1]: 0.6253
- NES [1]: 2.134
- ES [2]: 0.4726
- NES [2]: 2.261
- ES [3]: 0.4691
- NES [3]: 2.175
- ES (gene set BENPORATH_ES_1): 0.3997
- NES (gene set BENPORATH_ES_1): 2.093
- ES (gene set BIOCARTA_RHO_PATHWAY): 0.6245
- NES (gene set BIOCARTA_RHO_PATHWAY): 2.154
- ES [4]: 0.4436
- NES [4]: 2.13
- ES [5]: 0.4131
- NES [5]: 2.057
- ES [6]: 0.4124
- NES [6]: 2.254
- ES (gene set CSR_EARLY_UP.V1_UP): 0.4601
- NES (gene set CSR_EARLY_UP.V1_UP): 2.136
- ES [7]: 0.3969
- NES [7]: 2.179
- ES [8]: 0.5452
- NES [8]: 2.195
- ES [9]: 0.5186
- NES [9]: 2.174
- ES [10]: 0.6475
- NES [10]: 2.082
- ES (gene set GABP_B): 0.419
- NES (gene set GABP_B): 2.063
- ES [11]: 0.4628
- NES [11]: 2.153
- ES [12]: 0.4432
- NES [12]: 2.179
- ES [13]: 0.393
- NES [13]: 2.047
- ES [14]: 0.4037
- NES [14]: 2.155
- ES (gene set JIANG_VHL_TARGETS): 0.4893
- NES (gene set JIANG_VHL_TARGETS): 2.171
- ES [15]: 0.4128
- NES [15]: 2.133
- ES [16]: 0.5976
- NES [16]: 2.088
- ES [17]: 0.6499
- NES [17]: 2.188
- ES [18]: 0.5262
- NES [18]: 2.154
- ES [19]: 0.5693
- NES [19]: 2.167
- ES [20]: 0.3819
- NES [20]: 2.135
- ES (gene set LINSLEY_MIR16_TARGETS): 0.4327
- NES (gene set LINSLEY_MIR16_TARGETS): 2.092
- ES (gene set LIN_APC_TARGETS): 0.5227
- NES (gene set LIN_APC_TARGETS): 2.086
- ES (gene set LY_AGING_PREMATURE_DN): 0.6267
- NES (gene set LY_AGING_PREMATURE_DN): 2.103
- ES [21]: 0.5871
- NES [21]: 2.132
- ES [22]: 0.4324
- NES [22]: 2.184
- ES [23]: 0.7218
- NES [23]: 2.197
- ES (gene set NPS14_DN.V1_DN): 0.4491
- NES (gene set NPS14_DN.V1_DN): 2.133
- ES [24]: 0.4845
- NES [24]: 2.225
- ES [25]: 0.544
- NES [25]: 2.089
- ES (gene set PBC2_EED_UP.V1_DN): 0.4268
- NES (gene set PBC2_EED_UP.V1_DN): 2.076
- ES [26]: 0.4996
- NES [26]: 2.059
- ES (gene set PIC_DCD42_REG_PATHWAY): 0.5968
- NES (gene set PIC_DCD42_REG_PATHWAY): 2.051
- ES (gene set PIC_E2F_PATHWAY): 0.5204
- NES (gene set PIC_E2F_PATHWAY): 2.172
- ES (gene set PIC_FANCONE_PATHWAY): 0.5661
- NES (gene set PIC_FANCONE_PATHWAY): 2.097
- ES (gene set PIC_FCER1_PATHWAY): 0.5656
- NES (gene set PIC_FCER1_PATHWAY): 2.102
- ES (gene set PID_PDGFRB_PATHWAY): 0.4862
- NES (gene set PID_PDGFRB_PATHWAY): 2.232
- ES (gene set PIO_AURORA_A_PATHWAY): 0.6657
- NES (gene set PIO_AURORA_A_PATHWAY): 2.186
- ES (gene set PIO_TCR_PATHWAY): 0.6
- NES (gene set PIO_TCR_PATHWAY): 2.184
- ES [27]: 0.6921
- NES [27]: 2.117
- ES [28]: 0.5652
- NES [28]: 2.158
- ES [29]: 0.5104
- NES [29]: 2.126
- ES (gene set RACTOME_IMMUNE_SYSTEM): 0.3664
- NES (gene set RACTOME_IMMUNE_SYSTEM): 2.063
- ES (gene set RB_P107_0N, L1_UP): 0.4941
- NES (gene set RB_P107_0N, L1_UP): 2.216
- ES [30]: 0.5859
- NES [30]: 2.116
